Data from US9062050B2, “Inhibitor of JAK1 and JAK2” (Eli Lilly and Company, priority 2012, dated 2015).

Target: T1, JAK3 (Homo sapiens, UniProt P52333)
T1 sequence (P52333 1-1124): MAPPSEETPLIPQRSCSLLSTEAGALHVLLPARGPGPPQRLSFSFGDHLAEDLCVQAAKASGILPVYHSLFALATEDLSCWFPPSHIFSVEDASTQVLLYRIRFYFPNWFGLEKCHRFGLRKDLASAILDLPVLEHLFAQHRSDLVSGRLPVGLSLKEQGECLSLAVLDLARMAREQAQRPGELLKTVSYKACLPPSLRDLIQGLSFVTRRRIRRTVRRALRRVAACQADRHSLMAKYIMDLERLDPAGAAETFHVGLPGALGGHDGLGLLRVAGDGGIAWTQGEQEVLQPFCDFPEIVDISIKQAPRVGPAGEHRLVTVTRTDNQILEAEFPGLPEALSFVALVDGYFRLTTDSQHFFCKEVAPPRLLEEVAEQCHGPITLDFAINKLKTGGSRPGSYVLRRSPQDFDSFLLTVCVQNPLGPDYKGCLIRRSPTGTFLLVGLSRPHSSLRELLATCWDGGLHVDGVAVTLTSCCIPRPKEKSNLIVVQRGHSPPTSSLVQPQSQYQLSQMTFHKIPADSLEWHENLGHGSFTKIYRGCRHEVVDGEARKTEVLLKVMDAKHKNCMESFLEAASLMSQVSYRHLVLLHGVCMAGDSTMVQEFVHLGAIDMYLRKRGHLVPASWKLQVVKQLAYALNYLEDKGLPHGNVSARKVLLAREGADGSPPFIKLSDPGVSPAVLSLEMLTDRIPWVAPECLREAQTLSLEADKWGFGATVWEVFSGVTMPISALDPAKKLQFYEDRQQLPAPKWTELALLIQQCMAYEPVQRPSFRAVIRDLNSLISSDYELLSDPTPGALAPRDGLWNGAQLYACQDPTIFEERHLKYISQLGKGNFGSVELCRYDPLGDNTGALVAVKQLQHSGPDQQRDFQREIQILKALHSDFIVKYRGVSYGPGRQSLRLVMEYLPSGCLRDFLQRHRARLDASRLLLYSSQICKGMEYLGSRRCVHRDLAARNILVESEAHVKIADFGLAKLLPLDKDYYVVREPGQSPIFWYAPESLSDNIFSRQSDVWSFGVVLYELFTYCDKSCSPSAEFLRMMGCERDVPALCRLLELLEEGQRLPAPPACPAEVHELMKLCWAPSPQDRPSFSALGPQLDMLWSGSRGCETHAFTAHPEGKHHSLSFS
Test: JAK3 IL-2-NK-92/pSTAT5 cell-based assay (Cellomics ArrayScan HCS)
Design: host or cells: NK-92 (natural killer) cells
Source text: IL-2 activates the JAK3 pathway in natural killer (NK) cells to drive the NK and CD8 lymphocyte proliferation. Therefore, IL-2 stimulated NK92/pSTAT5 cell-based assay enables the evaluation of the JAK3 cellular activity of JAK compounds in vitro.
NK-92 (natural killer) cells (ATCC, Manassas, Va.) are maintained in minimum essential medium (MEM) Alpha with 15% fetal bovine serum, 15% Horse Serum and 1× antibiotic/antimycotic (Invitrogen, Carlsbad, Calif.). The medium is supplemented with IL-2 (R&D systems, Minneapolis, Minn.) for a final concentration of 4 ng/mL. Cells are kept at 37° C. with 5% CO2. Cells are starved in serum free medium to remove endogenous growth factors. NK-92 cells are counted and collected to seed 2×10^7 cells per 96-well plate at a density of 2×10^5 cells per well. The cells are rinsed twice with unsupplemented MEM Alpha (MEM Alpha) before suspending cells at a final concentration of 8×10^5 cells/mL in MEM Alpha with 0.6% serum (0.3% FBS, 0.3% horse serum). The diluted cells are added back to tissue culture flasks and incubated overnight at 37° C. Test compound is prepared in 100% DMSO at 10 mM concentration. […] An aliquot of 200 μL of 1 to 10 dilution of Mouse anti-pSTAT5 (pY694) Alexa Fluor 647® in fluorescence activated cell sorting (FACS) buffer is added to the cells. […] Mean fluorescent intensity data are collected and analyzed using Cellomics Arrayscan® VTi. […]

Cc1cc(Nc2ccc3ncn([C@@H]4CCc5ccc(F)cc54)c3n2)[nH]n1.Cl.Cl [Example 1, 3-[(1R)-6-fluoro-2,3-dihydro-1H-inden-1-yl]-N-(3-methyl-1H-pyrazol-5-yl)-3H-imidazo[4,5-b]pyridin-5-amine dihydrochloride]
IC50 (NK-92 cells, IL-2 at 0.5 ng/mL, relative IC50, n=61, read-out: IC50, inhibits JAK3 (pSTAT5)): 228 nM
ratio of JAK3/JAK2 IC50 (from the two cell-based assays (EPO-TF1/pSTAT5 and IL-2-NK-92/pSTAT5)): more than six-fold
